Legend:
[1] = target: T1, human recombinant PDE V (Homo sapiens, UniProt O76074); experiment: Inhibitory effect on cGMP-PDE (one-step assay adapted from Wells et al.); type: biochemical; conditions: 0.15 μM 8-[H3]-cGMP, 30 minutes incubation, 2% DMSO
T1 construct: purchased ICOS, Seattle USA
Method: The enzyme used was a human recombinant PDE V (ICOS, Seattle USA).
Compounds of the invention were dissolved in DMSO finally present at 2% in the assay.

[2] = tested on: conscious spontaneously hypertensive rats (SHR); experiment: Antihypertensive activity in rats; type: in vivo, rat; conditions: orally 5 mg/kg in 5% DMF and 95% olive oil, carotid artery catheter, recorded for 5 hours
Method: The hypotensive effects of compounds according to the invention as identified in table 2 were studied in conscious spontaneously hypertensive rats (SHR). The compounds were administered orally at a dose of 5 mg/kg in a mixture of 5% DMF and 95% olive oil. Blood pressure was measured from a catheter inserted in the carotid artery and recorded for 5 hours after administration. The results are expressed as Area Under the Curve (AUC from 0 to 5 hours, mmHg.hour) of the fall blood pressure over time.

[3] = tested on: Rat aortic smooth muscle cells (RSMC); experiment: cGMP level measurements in ANF-stimulated cells; type: cell-based; conditions: 30 minutes at 37° C. with compound, then ANF (100 nM) for 10 minutes, c-GMP by scintillation proximity immunoassay
Method: Rat aortic smooth muscle cells (RSMC) prepared according to Chamley et al. in Cell Tissue Res. 177 503-522 (1977) were used between the 10th and 25th passage at confluence in 24-well culture dishes. Culture media was aspirated and replaced with PBS (0.5 ml) containing the compound tested at the appropriate concentration. After 30 minutes at 37° C., particulates guanylate cyclase was stimulated by addition of ANF (100 nM) for 10 minutes. At the end of incubation, the medium was withdrawn and two extractions were performed by addition of 65% ethanol (0.25 ml). The two ethanolic extracts were pooled and evaporated until dryness, using a Speed-vac system. c-GMP was measured after acetylation by scintillation proximity immunoassay ([…]).

IC50 [1] | EC50 [3] | melting point | SMILES | AUC PO (fall in blood pressure over time, AUC from 0 to 5 hours) [2]
< 10 nM | 150 nM | 290 to 293 °C | CC(C)N1CC(=O)N2[C@H](c3ccc4c(c3)OCO4)c3[nH]c4ccccc4c3C[C@@H]2C1=O [Example 79, (6R,12aR)-2,3,6,7,12,12a-Hexahydro-2-isopropyl-6-(3,4-methylenedioxyphenyl)-pyrazino[2′,1′:6,1]pyrido[3,4-b]indole-1,4-dione] | 171 mmHg.h
30 nM | 350 nM | 194 °C | CCCCN1CC(=O)N2C(Cc3c([nH]c4ccccc34)C2c2ccc(C)cc2)C1=O (stereo not drawn) [Example 63, Cis-2 3,6,7,12,12a-Hexahydro-2-butyl-6-(4-methylphenyl)-pyrazino[2′,1′:6,1]pyrido[3,4-b]indole-1,4-dione] | 95 mmHg.h
10 nM | 300 nM | 285 to 290 °C | O=C1NCC(=O)N2[C@H](c3ccc4c(c3)OCO4)c3[nH]c4ccccc4c3C[C@H]12 [Example 101, (6R,12aR)-2,3,6,7,12,12a-Hexahydro-4-(3,4-methylenedioxyphenyl)-pyrazino[2′,1′:6,1]pyrido [3,4-b]indole-1,4-dione] | 136 mmHg.h
10 nM | 400 nM | 204 to 205 °C | COc1ccc([C@@H]2c3[nH]c4ccccc4c3C[C@@H]3C(=O)N(CC4CC4)CC(=O)N23)cc1 [Example 84, (6R,12aR)-2,3,6,7,12,12a-Hexahydro-2-cyclopropylmethyl-6-(4-methoxyphenyl)-pyrazino[2′,1′:6.1]pyrido[3,4-b]indole-1,4-dione] | 77 mmHg.h
20 nM | 500 nM | 237 to 239 °C | O=C1[C@H]2Cc3c([nH]c4ccccc34)[C@@H](c3ccc4c(c3)OCO4)N2C(=O)CN1C1CCCC1 [Example 82, (6R,12aR)-2,3,6,7,12,12a-Hexahydro-2-cyclopentyl-6-(3,4-methylenedioxyphenyl)-pyrazino[2′,1′:6,1pyrido3,4-b]indole-1,4-dione] | 111 mmHg.h
– | 200 nM | – | CN1CC(=O)N2[C@H](c3ccc4c(c3)OCO4)c3[nH]c4ccccc4c3C[C@@H]2C1=O [Example 95, (6R,12aR)-2,3,6,7,12,12a-Hexahydro-2-methyl-6-(3,4-methylenedioxyphenyl)-pyrazino[2′,1′:6,1]pyrido[3,4-b]indole-1,4-dione] | 135 mmHg.h
10 nM | < 100 nM | 283 to 284 °C | COc1ccc([C@@H]2c3[nH]c4ccccc4c3C[C@@H]3C(=O)N(C)CC(=O)N23)cc1Cl [Example 89] | 117 mmHg.h
< 10 nM | 500 nM | 292 to 294 °C | CN1CC(=O)N2[C@@H](c3ccc4c(c3)CCO4)c3[nH]c4ccccc4c3C[C@@H]2C1=O (relative stereo) [Example 36, Cis-2,3,6,7,12,12a-Hexahydro-6-(2,3-dihydrobenzo[b]furan-5-yl)-2-methyl-pyrazino[2′,1′:6,1]pyrido[3,4-b]indole-1,4-dione] | 99 mmHg.h

Reference: US6369059B1, “Tetracyclic derivatives, process of preparation and use” (ICOS Corporation, priority 1994, dated 2002)
